Activity calls are given as the source filed them. No cut-off for these calls is given here. Non-standard residues stand in square brackets, D forms with d. Residues, ends and D or L forms follow the SMILES beside them. *: point of attachment. Cbz = O=C(OCc1ccccc1)*; Ac3c = NC1(C(=O)O)CC1
Biological target: Cruzipain (Trypanosoma cruzi) (UniProt P25779)
Sequence (P25779 123-467 limits assumed): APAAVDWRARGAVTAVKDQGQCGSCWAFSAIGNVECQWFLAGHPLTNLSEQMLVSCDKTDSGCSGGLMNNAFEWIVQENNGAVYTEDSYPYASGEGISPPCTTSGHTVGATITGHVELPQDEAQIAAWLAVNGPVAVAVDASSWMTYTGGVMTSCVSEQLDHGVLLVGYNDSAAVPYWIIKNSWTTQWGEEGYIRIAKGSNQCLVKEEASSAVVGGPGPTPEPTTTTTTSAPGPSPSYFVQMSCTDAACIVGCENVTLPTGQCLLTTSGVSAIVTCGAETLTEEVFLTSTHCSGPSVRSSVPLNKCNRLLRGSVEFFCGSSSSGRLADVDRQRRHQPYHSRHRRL
Test: Reversible inhibition of recombinant Trypanosoma cruzi cruzain using Z-phe-Arg-7-amido-4-methylcoumarin as substrate by fluorometric method
For `CC(C)C[C@H](NC(=O)OC(C)(C)C)C(=O)N(C)N(C)C#N`, the inhibition was “Active”. For `CCOC(=O)/C=C\CNC(=O)[C@H](Cc1ccccc1)NC(=O)OCc1ccccc1`, the inhibition was “Active”. In the case of `CCOC(=O)/C=C/C1(NC(=O)[C@H](Cc2ccccc2)NC(=O)OCc2ccccc2)CC1`, the inhibition is reported as “Active”. In the case of `CCN(CC)C(=O)/C=C/C1(NC(=O)[C@H](Cc2ccccc2)NC(=O)OCc2ccccc2)CC1`, the inhibition is reported as “Active”. In the case of `CN(C#N)N(C)C(=O)[C@H](Cc1ccccc1)NC(=O)OCc1ccccc1`, the inhibition is reported as “Active”. In the case of `N#CCNC(=O)[C@H](Cc1ccccc1)NC(=O)OCc1ccccc1`, the inhibition is reported as “Active”. With `O=C(N[C@@H](Cc1ccccc1)C(=O)NCC=NO)OCc1ccccc1` the inhibition was “Active”. In the case of `CNC(=O)/C=C/C1(NC(=O)[C@H](Cc2ccccc2)NC(=O)OCc2ccccc2)CC1`, the inhibition is reported as “Active”. For `O=CCNC(=O)[C@H](Cc1ccccc1)NC(=O)OCc1ccccc1` (Cbz-Phe-Gly-aldehyde), the inhibition was “Active”.

Biological target: Cruzipain (Trypanosoma cruzi) (UniProt P25779)
Test: Ratio of Kinact to Ki for recombinant Trypanosoma cruzi cruzain using Z-phe-Arg-7-amido-4-methylcoumarin as substrate
For `CCOC(=O)/C=C/CNC(=O)[C@H](Cc1ccccc1)NC(=O)OCc1ccccc1`, the Ratio was 9.8 ×10³ /s/M.

Biological target: Cruzipain (Trypanosoma cruzi) (UniProt P25779)
Test: Irreversible inhibition of recombinant Trypanosoma cruzi cruzain using Z-phe-Arg-7-amido-4-methylcoumarin as substrate by fluorometric method
For `CCOC(=O)/C=C/CNC(=O)[C@H](Cc1ccccc1)NC(=O)OCc1ccccc1`, the inhibition was “Active”.

Biological target: Cruzipain (Trypanosoma cruzi) (UniProt P25779)
Test: Inhibition of recombinant Trypanosoma cruzi cruzain assessed as dissociation rate constant using Z-phe-Arg-7-amido-4-methylcoumarin as substrate by fluorometric method
Molecule `CC(C)C[C@H](NC(=O)OC(C)(C)C)C(=O)N(C)N(C)C#N` has a koff of 0.0053 s⁻¹. Molecule `CN(C#N)N(C)C(=O)[C@H](Cc1ccccc1)NC(=O)OCc1ccccc1` has a koff of 0.011 s⁻¹. `CN(C#N)N(C)C(=O)[C@H](Cc1ccccc1)NC(=O)c1cc(C(C)(C)C)nn1C` showed a koff of 0.012 s⁻¹.

Tested on: not listed separately
Test: Cytotoxicity against human U2OS cells
Format: cell-based
`CC(C)C[C@H](NC(=O)OC(C)(C)C)C(=O)N(C)N(C)C#N` gave a CC50 of 50.1 µM. Work on `CN(C#N)N(C)C(=O)[C@H](Cc1ccccc1)NC(=O)OCc1ccccc1` yielded a CC50 of 10 µM. For `N#CCNC(=O)[C@H](Cc1ccccc1)NC(=O)OCc1ccccc1`, the CC50 was > 100 µM. For `Cc1coc(NC(=O)[C@H](Cc2ccccc2)NC(=O)OCc2ccccc2)n1`, the CC50 was > 100 µM. For `N#CC1(NC(=O)[C@H](Cc2ccccc2)NC(=O)OCc2ccccc2)CC1`, the CC50 was > 100 µM. For `O=C(N[C@@H](Cc1ccccc1)C(=O)Nc1cnoc1)OCc1ccccc1`, the CC50 was > 100 µM.

Biological target: Cruzipain (Trypanosoma cruzi, UniProt P25779)
Sequence (P25779 whole entry): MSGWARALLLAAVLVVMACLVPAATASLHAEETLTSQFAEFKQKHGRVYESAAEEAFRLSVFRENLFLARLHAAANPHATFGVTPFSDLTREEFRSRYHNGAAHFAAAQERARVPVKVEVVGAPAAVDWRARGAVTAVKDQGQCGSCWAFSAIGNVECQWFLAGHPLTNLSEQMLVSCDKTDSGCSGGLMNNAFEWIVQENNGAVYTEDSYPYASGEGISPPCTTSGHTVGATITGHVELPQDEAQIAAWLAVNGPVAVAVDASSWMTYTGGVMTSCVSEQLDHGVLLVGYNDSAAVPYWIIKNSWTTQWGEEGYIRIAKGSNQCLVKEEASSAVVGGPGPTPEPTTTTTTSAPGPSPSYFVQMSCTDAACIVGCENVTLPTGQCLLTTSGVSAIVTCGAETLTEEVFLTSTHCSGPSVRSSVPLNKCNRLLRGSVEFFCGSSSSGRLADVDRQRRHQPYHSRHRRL
Test: Inhibition of recombinant Trypanosoma cruzi cruzain using Z-phe-Arg-7-amido-4-methylcoumarin as substrate by fluorometric method
For `CC(C)C[C@H](NC(=O)OC(C)(C)C)C(=O)N(C)N(C)C#N`, the Ki was 0.01 µM. Work on `CCOC(=O)/C=C\CNC(=O)[C@H](Cc1ccccc1)NC(=O)OCc1ccccc1` yielded a Ki of 6.31 µM. With `CCOC(=O)/C=C/C1(NC(=O)[C@H](Cc2ccccc2)NC(=O)OCc2ccccc2)CC1` the Ki was 126 µM. Molecule `CCN(CC)C(=O)/C=C/C1(NC(=O)[C@H](Cc2ccccc2)NC(=O)OCc2ccccc2)CC1` has a Ki of 200 µM. `CN(C#N)N(C)C(=O)[C@H](Cc1ccccc1)NC(=O)OCc1ccccc1` gave a Ki of 0.002 µM. Work on `Cc1coc(NC(=O)[C@H](Cc2ccccc2)NC(=O)OCc2ccccc2)n1` yielded a Ki of 25.1 µM. In the case of `CN(C#N)N(C)C(=O)[C@H](Cc1ccccc1)NC(=O)c1cc(C(C)(C)C)nn1C`, the Ki is reported as 0.00158 µM. `O=C(N[C@@H](Cc1ccccc1)C(=O)NCC=NO)OCc1ccccc1` showed a Ki of 0.1 µM. In the case of `N#CC1(NC(=O)[C@H](Cc2ccccc2)NC(=O)OCc2ccccc2)CC1`, the Ki is reported as 6.31 µM. For `CNC(=O)/C=C/C1(NC(=O)[C@H](Cc2ccccc2)NC(=O)OCc2ccccc2)CC1`, the Ki was 398 µM. Molecule `O=CC1(NC(=O)[C@H](Cc2ccccc2)NC(=O)OCc2ccccc2)CC1` (Cbz-Phe-[Ac3c]-aldehyde) has a Ki of 3.98 µM. `CCOC(=O)/C=C/CNC(=O)[C@H](Cc1ccccc1)NC(=O)OCc1ccccc1` showed a Ki of 1.58 µM. Work on `O=C(N[C@@H](Cc1ccccc1)C(=O)Nc1cnoc1)OCc1ccccc1` yielded a Ki of 10 µM. Work on `O=CCNC(=O)[C@H](Cc1ccccc1)NC(=O)OCc1ccccc1` (Cbz-Phe-Gly-aldehyde) yielded a Ki of 0.00794 µM.

Tested on: Trypanosoma cruzi
Test: Antitrypanosomal activity against amastigote form of Trypanosoma cruzi Y infected in human U2OS cells
Format: functional, organism-based
Work on `CC(C)C[C@H](NC(=O)OC(C)(C)C)C(=O)N(C)N(C)C#N` yielded an EC50 of 39.8 µM. `CN(C#N)N(C)C(=O)[C@H](Cc1ccccc1)NC(=O)OCc1ccccc1` gave an EC50 of 5.01 µM. For `N#CCNC(=O)[C@H](Cc1ccccc1)NC(=O)OCc1ccccc1`, the EC50 was > 100 µM. `Cc1coc(NC(=O)[C@H](Cc2ccccc2)NC(=O)OCc2ccccc2)n1` gave an EC50 of 39.8 µM. With `N#CC1(NC(=O)[C@H](Cc2ccccc2)NC(=O)OCc2ccccc2)CC1` the EC50 was > 100 µM. For `O=C(N[C@@H](Cc1ccccc1)C(=O)Nc1cnoc1)OCc1ccccc1`, the EC50 was > 100 µM. For `CC(C)C[C@H](NC(=O)c1cc(C(C)(C)C)nn1C)C(=O)N(C)N(C)C#N`, the EC50 was 12.6 µM.
